US11644469B2, “HIF-1 and HIF-2 inhibitors” (UNIVERSITY OF SOUTHAMPTON, priority 2016, dated 2023)
Where two headings read alike, the source gives them in different places. Residues, ends and D or L forms follow the SMILES beside them.

Assays:
[1] = system: HIF-1α (Trx-1α, 1α PASB); experiment: Thermal shift assay, HIF-1α; type: binding; details: effective inhibitors decrease the melting temperature
Protocol: (§1) The binding of the compounds to their targets was assessed by measuring changes in the melting temperature of their target proteins HIF-1α and HIF-2α (known as a thermal shift assay) and by microscale thermophoresis (MST). The data for the thermal shift assay is summarized in FIG. 1, while the binding constants (Kd) derived from MST is shown in FIG. 3. Compounds that are effective inhibitors decrease the melting temperatures of the proteins. […] The compounds may bind to HIF 1α/2α or 1β in order to disrupt the dimerization, and PASB may be the responsible domain.
(§2) Thermal shift data of thioredoxin-tagged longer constructs and PASB domains with the identified polypeptides are shown in FIG. 1. Compounds that are effective inhibitors decrease the melting temperatures of the proteins.
(§3) Thermal denaturation of HIF proteins was performed in 20 μL reactions in triplicate using a Bio-Rad CFX Connect Real-Time System. Proteins were used at either 5 μM (Trx-1α, Trx-2α and GST-1β) or 15 μM (His-tagged PASB domains) in HIF assay buffer, with 10 mM DTT and SYPRO orange dye (Life Technologies) at a final concentration of 8× (relative to 5000× stock), and supplemented with either DMSO or compound dissolved in DMSO at the stated concentrations. The reaction plate was assembled on ice, then transferred to the pre-chilled thermal cycler, held at 10° C. for 5 min (heated lid, 105° C.), then the temperature ramped to 95° C. Fluorescence was recorded at 0.5° C. increments, holding for 5 sec at each temperature. Data were plotted using GraphPad Prism 6, and melting temperatures calculated using the first derivative method in which the peak (i.e. the steepest transition between data points) represents the point at which 50% of the protein sample is denatured. Errors are quoted as the inherent error associated with the first derivative of the data, i.e. ±0.25° C. for Tm values and ±0.5° C. for ΔTm values.

[2] = molecular target: T1, HIF-1α (Trx-1α, 1α PASB) (Homo sapiens, UniProt Q16665); experiment: Thermal shift assay, HIF-1α; type: binding; details: 1 mM compound
T1 construct: 238-349; made in house
Protocol: as §1, §2, §3

[3] = system: HIF-2α (Trx-2α, 2α PASB); experiment: Thermal shift assay, HIF-2α; type: binding; details: effective inhibitors decrease the melting temperature
Protocol: as §1, §2, §3

[4] = molecular target: T2, HIF-2α (Trx-2α, 2α PASB) (Homo sapiens, UniProt Q99814); experiment: Thermal shift assay, HIF-2α; type: binding; details: 1 mM compound
T2 construct: 240-350; made in house
Protocol: as §1, §2, §3

[5] = molecular target: T3, HIF-1β (GST-1β, 1β PASB) (Homo sapiens, UniProt P27540); experiment: Thermal shift assay, HIF-1β (negative control); type: binding; details: for activity against HIF-1β in thermal shift assay: negative control protein
T3 construct: 356-474; made in house
Protocol: as §1, §2, §3

[6] = system: HIF-1β (GST-1β, 1β PASB); experiment: Thermal shift assay, HIF-1β (negative control); type: binding; details: 1 mM compound; GST-1β 5 μM
Protocol: as §1, §2, §3

[7] = system: MCF-7 cells; experiment: Cell permeability and localisation by fluorescence microscopy; type: cell-based; details: 24 hr
Protocol: FIGS. 10A-D and 10A′-D′ show cell permeability tested using fluorescently labeled-CRVIIF (SEQ ID NO 4) in MCF-7 cells.
For initial compound permeability experiments, 1.5 mL MCF-7 cells were plated on 3 cm petri dishes (200,000 cells/plate) and grown at 37° C. After 24 hr, cells were incubated with fresh media containing the stated concentrations of fluor-CRVIIF (SEQ ID NO 4) (0.5% DMSO) or 66 μM CP-61 control compound (0.66% DMSO) for a further 24 hr. Cells were washed twice with PBS and imaged live in plates. For co-localisation experiments, an 8-well Lab-Tek Chamber Slide (Nunc) was treated with collagen prior to plating 25,000 MCF-7 cells/well. After 24 hr, cells were dosed with 300 μL fresh media containing the stated concentrations of fluor-CRVIIF (SEQ ID NO 4) (0.5% DMSO) and/or 5 μg/mL FM 4-64FX Membrane Stain (Life Technologies) and incubated for a further 24 hr. Cells were washed with 2×300 μL PBS, fixed with 150 μL 10% formalin in PBS for 5-10 min, then washed again with PBS. Growth chambers were removed and nuclear staining was achieved using Vectashield Mounting Medium with DAPI (Vector Laboratories) prior to sealing the slide with a coverslip. Cells were imaged using a fluorescent microscope.

[8] = His-tagged PASB domain 15 μM, read-out: ΔTm 1α PASB
[9] = Trx-1α 5 μM, read-out: ΔTm Trx-1α
[10] = His-tagged PASB domain 15 μM, read-out: ΔTm 2α PASB
[11] = Trx-2α 5 μM, read-out: ΔTm Trx-2α
[12] = 1 mM compound, His-tagged PASB domain 15 μM

T3 sequence (P27540 356-474): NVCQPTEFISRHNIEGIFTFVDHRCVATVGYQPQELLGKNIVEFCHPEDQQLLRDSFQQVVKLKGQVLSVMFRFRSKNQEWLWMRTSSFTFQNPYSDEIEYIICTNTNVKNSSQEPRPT

Compound | activity against HIF-1α in thermal shift assay [1] | ΔTm at 1000 µM [2, 8] | ΔTm at 1000 µM [2, 9] | activity against HIF-2α in thermal shift assay [3] | ΔTm at 1000 µM [4, 10] | ΔTm at 1000 µM [4, 11] | ΔTm at 1000 µM [5, 12] | activity against HIF-1β in thermal shift assay [5] | ΔTm GST-1β [6] | ΔTm 1α PASB ([2]; His-tagged PASB domain 15 μM) | ΔTm Trx-1α ([2]; Trx-1α 5 μM) | ΔTm 2α PASB ([4]; His-tagged PASB domain 15 μM) | ΔTm Trx-2α ([4]; Trx-2α 5 μM) | ΔTm 1β PASB [5, 12] | cell permeability [7]
CC[C@H](C)[C@@H]1NC(=O)[C@H](CC(C)C)NC(=O)[C@H](CCCCN)NC(=O)[C@H](CS)NC(=O)[C@H](Cc2ccccc2)NC(=O)[C@H]([C@@H](C)CC)NC1=O [CKLIIF] (cyclo(CKLIIF); ring closure inferred) | show activity | -1 °C | -1.5 °C | show activity | -2.5 °C | -2.5 °C | -0.5 °C | not against HIF-1β |  |  |  |  |  |  | 
CC[C@H](C)[C@@H]1NC(=O)[C@H](CC(C)C)NC(=O)[C@H](CC(C)C)NC(=O)[C@H](CCCNC(=N)N)NC(=O)[C@H](CS)NC(=O)[C@H](Cc2ccccc2)NC1=O [CRLLIF, cyclo-CRLLIF] (cyclo(CRLLIF); ring closure inferred) | show activity | -2 °C | 0.5 °C | show activity | -4 °C | -4 °C | -1 °C | not against HIF-1β |  |  |  |  |  |  | 
CC[C@H](C)[C@@H]1NC(=O)[C@H](C(C)C)NC(=O)[C@H](CCCNC(=N)N)NC(=O)[C@H](CS)NC(=O)[C@H](Cc2ccccc2)NC(=O)[C@H]([C@@H](C)CC)NC1=O [CRVIIF, cyclo-CRVIIF] (cyclo(CRVIIF); ring closure inferred) | show activity | -1.5 °C | -1 °C | show activity | -2.5 °C | -2 °C | -0.5 °C | not against HIF-1β | −0.5 °C |  |  |  |  |  | 
SGWEMIQRR (cyclic; listed as Homo sapiens) | only active against HIF-1α |  |  |  |  |  |  |  |  | −0.5 °C | −2.5 °C | −2.5 °C | −2 °C | −0.5 °C | 
fluor-CRVIIF: fluorescently labelled cyclo-CRVIIF; FITC-maleimide bound to the cysteine (cyclo(C(FITC‑maleimide)RVIIF); listed as Homo sapiens) |  |  |  |  |  |  |  |  |  |  |  |  |  |  | appears to cross cell membrane
